Experimental data: patent US7005274B1, “Methods and compositions for diagnosing and treating arthritic disorders and regulating bone mass” (MIGENIX Corp., priority 1999, dated 2006)

Experiments:
[1] = test system: TC28 cells; assay: Intracellular ATP, luciferase assay; format: cell-based; settings: 10 ng/ml TGFβ, 0.025 mM antimycin A, 0.02 μg/ml oligomycin; mean ± SD
Procedure: (§1) Levels of total cellular ATP were measured by a modification of luciferase-based assays known in the art (Lin et al., Anal. Biochem. 24:531–540, 1968); related assays and modifications may alternatively be used (see, e.g., Turman et al., In Vitro Cell. Dev. Biol. Anim. 32:1–4, 1996, for an assay format that uses a fluorescent plate reader). In brief, 2×10^6 cells were washed and pelleted in 10 ml phosphate-buffered saline (PBS). The cell pellets were snap-frozen in a dry ice/ethanol bath, after which […] of 0.2 M HCl was added, followed by 0.3 ml of 2 mM glycine (pH 9.0). Samples were heated at 100° C. for five minutes, then placed on ice. A standard curve was developed using 0 to 500 pmol of purified ATP (disodium salt). One hundred (100) μl of the cell extract, or purified ATP standard, was added to an equal volume of the ATP assay mixture (containing MgSO4, DTT, EDTA, luciferase and luciferin, all from the Sigma Bioluminescence Assay Kit and all diluted 1:25). Following a 5 second incubation and 15 second integration, samples were read on a TD-20/20 Luminometer (Turner Designs, Sunnyvale, Calif.).

[2] = test system: articular chondrocytes and TC28 cells; assay: Intracellular ATP, statements covering both cell preparations; format: cell-based, human; settings: for depletion of intracellular ATP levels: 0.025 mM antimycin A or 0.02 μM oligomycin, administered every 24 hours for 72 hours; for intracellular ATP levels (qualitative): SIN-1 500 μM, NOC-12 250 μM, antimycin A and oligomycin concentration not stated; for effect on TGFβ-induced increase of intracellular ATP: antimycin A 0.025 mM or oligomycin 0.02 μM additionally present
Procedure: as §1
In FIG. 1A, articular chondrocytes or TC28 cells (5×10^5) in 5 ml were studied in triplicate in the presence of antimycin (or oligomycin, see next Example) at the indicated concentrations, administered every 24 hours for a total of 72 hours, and total intracellular ATP concentrations were determined as described above. Viability determinations are shown in FIG. 1B, where 2×10^4 chondrocytes or TC28 cells in 0.2 ml were cultured in triplicate in the presence of antimycin (or oligomycin) at the indicated concentrations, administered every 24 hours for a total of 72 hours, and cell viability was determined by trypan blue dye exclusion (>200 cells counted for each replicate).

[3] = test system: articular chondrocytes and TC28 cells; assay: Cell viability by trypan blue dye exclusion; format: cell-based, human; settings: 0.025 mM antimycin A or 0.02 μM oligomycin, 72 hours
Procedure: Nonlethal but mitochondrial effective doses of antimycin A were determined as follows. Progressively higher concentrations of antimycin A (Sigma Chemical Co., St. Louis, Mo.) were added to cultured articular condrocytes and TC-28 cells. Cell proliferation was measured by incorporation of fluorogenic H33258 (Calbiochem, La Jolla, Calif.) essentially according to the manufacturer's instructions, and cell viability was assessed by trypan blue dye exclusion (Medzihradsky et al., Biochem. Med. 13:164–177, 1975), essentially according to the instructions of the manufacturer (Sigma).
The objective of these studies was to find, if possible, a level of antimycin A that depressed total cellular ATP levels without causing more than 10% loss of viability. In FIG. 1A, articular chondrocytes or TC28 cells (5×10^5) in 5 ml were studied in triplicate in the presence of antimycin (or oligomycin, see next Example) at the indicated concentrations, administered every 24 hours for a total of 72 hours, and total intracellular ATP concentrations were determined as described above. […]

[4] = test system: articular chondrocytes and TC28 cells; assay: Level of glycolysis; format: cell-based, human; settings: 0.025 mM antimycin A or 0.02 μM oligomycin
[5] = test system: articular chondrocytes and TC28 cells; assay: Oxygen consumption with a Clark electrode (respiratory rate); format: cell-based, human; settings: SIN-1 500 μM; NOC-12 250 μM; antimycin A and oligomycin concentration not stated
[6] = test system: chondrocytes; assay: Collagen synthesis, [3H]-proline labeling, collagenase-sensitive protein; format: cell-based, human; settings: 72 hours after addition; 0.025 mM antimycin A or non-lethal dose of oligomycin
Procedure: Collagen production was measured by tritiated proline ([^3H]-proline) biosynthetic protein labeling and measuring of collagenase-sensitive protein production (FIG. 2). Articular chondrocytres or TC28 cells (5×10^5 cells) were plated in 5 ml medium made 0.025 mM in antimycin A (or 0.02 μg/ml oligomycin, see next Example) by addition of the indicated agent every 24 hours. After the mitochondrial inhibitors were added, the cells were cultured for a further 48 hours. Medium was then removed and replaced with serum-free medium containing 5 μl/ml of [^3H]-proline, 50 μg/ml ascorbate and 100 μg/ml β-aminoproprionitrile, and incubation continued for an additional 8 hours.
Medium was then collected and precipitated with 15% trichloroacetic acid (TCA). Cells were extracted in 1 M NaCl, 1 mM N-ethylmaleimide, 0.2 mM phenylmethylsulfonyl fluoride, 0.75 mM EDTA and then precipitated with 15% TCA. The precipitates were washed 3 times with 5% TCA and once with 5% TCA containing 0.5% tannic acid. The pellet was dissolved and resuspended in 0.05 M Tris-HCl, pH 7.6, 5 mM CaCl2, 2.5 mM N-ethylmaleimide. Collagenase-sensitive protein per μg total protein was determined by incubation for 2 hours with 80 units/ml of collagenase, followed by addition of 10% TCA/0.5% tannic acid, and addition of the supernatant to scintillation fluid for standard scintillation counting in the tritium channel.

[7] = test system: chondrocytes; assay: Proteoglycan synthesis, [35S] labeling; format: cell-based, human; settings: 72 hours after addition; 0.025 mM antimycin A or non-lethal dose of oligomycin
Procedure: Proteoglycan synthesis was measured by [^35S]-labeling and uptake of the isotope, as well as by biosynthetic incorporation of the isotope (van Osch et al., Matrix Biol. 17:413–424, 1998) into proteoglycans extracted and subsequently purified by column chromatography on Sephadex® G-25 (Pharmacia, Piscataway, N.J.) (FIG. 3). Chondrocytes or TC28 cells (3×10^6) were plated in 30 ml of medium in a 10-cm diameter tissue culture dish and the medium was made 0.025 mM in antimycin (or 0.02 μg/ml oligomycin) every 24 hours for 72 hours. After 48 hours of culture, 20 μCi/ml of [^35S]sodium sulfate was added to each plate in serum-free medium. After a total of 72 hours, the medium was collected and the cells were washed once with phosphate buffered saline (PBS) and then scraped into 0.5 M NaOH and mixed for 48 hours at 4° C. The medium and the cell extract were eluted from Sephadex® (Pharmacia, Piscataway, N.J.) G-25M PD-10 columns with 4M guanidine-HCl. The eluted portion was added to scintillation fluid and counted (n=9 replicates in FIG. 3; *=P<0.05 by Student's t-test).

[8] = test system: alkaline phosphatase; assay: PPi-degrading alkaline phosphatase activity (control study); format: cell-based; settings: not shown

Compound: CC[C@H]1/C=C/C=C/C[C@@H](C)[C@H](O)[C@@](C)(O)C(=O)[C@@H](C)[C@H](O)[C@@H](C)C(=O)[C@@H](C)[C@H](O)[C@@H](C)/C=C/C(=O)O[C@@H]2[C@H](C)[C@H](CC1)O[C@]1(CC[C@H](C)[C@H](C[C@@H](C)O)O1)[C@H]2C [oligomycin]
- ATP (pmoles/μg DNA):TC28 cells [1]: 198.6 ± 3.7 pmoles/μg DNA
- depletion of intracellular ATP levels [2]: 50–80%
- intracellular ATP levels (qualitative) [2]: depressed intracellular ATP levels
- effect on TGFβ-induced increase of intracellular ATP [2]: this effect was blocked
- loss of viability [3]: less than 10%
- effect on level of glycolysis [4]: without altering the constitutively high level of glycolysis
- respiratory rates [5]: inhibited respiratory rates
- depression of collagen synthesis [6]: more than 50%
- depression of proteoglycan synthesis [7]: more than 50%
- PPi-degrading alkaline phosphatase activity [8]: neither agent altered PPi-degrading alkaline phosphatase activity

Compound: antimycin A
- ATP (pmoles/μg DNA):TC28 cells [1]: 69.78 ± 4.0 pmoles/μg DNA
- depletion of intracellular ATP levels [2]: 50–80%
- intracellular ATP levels (qualitative) [2]: depressed intracellular ATP levels
- effect on TGFβ-induced increase of intracellular ATP [2]: this effect was blocked
- loss of viability [3]: less than 10%
- effect on level of glycolysis [4]: without altering the constitutively high level of glycolysis
- respiratory rates [5]: inhibited respiratory rates
- depression of collagen synthesis [6]: more than 50%
- depression of proteoglycan synthesis [7]: more than 50%
- PPi-degrading alkaline phosphatase activity [8]: neither agent altered PPi-degrading alkaline phosphatase activity
